From PubChem BioAssay (NCI)
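Each compound was tested at five concentrations against cells in 96-well plates for 48 hours. Definition used: TGI = concentration required for complete inhibition of growth.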

Experiments:
Experiment in all cases: growth of human tumour cells (NCI), 48 h
RXF 393 renal = system: RXF 393 renal
A549 NSCLC = system: A549 NSCLC
KM20L2 colon = system: KM20L2 colon
786-0 renal = system: 786-0 renal
LXFL 529 NSCLC = system: LXFL 529 NSCLC
SF-539 CNS = system: SF-539 CNS
HCC-2998 colon = system: HCC-2998 colon
RXF-631 renal = system: RXF-631 renal
SF-295 CNS = system: SF-295 CNS
SK-MEL-2 melanoma = system: SK-MEL-2 melanoma
HCT-15 colon = system: HCT-15 colon
OVCAR-3 ovarian = system: OVCAR-3 ovarian
HL-60(TB) leukemia = system: HL-60(TB) leukemia
DLD-1 colon = system: DLD-1 colon
M19-MEL melanoma = system: M19-MEL melanoma
DMS 273 small cell lung = system: DMS 273 small cell lung
OVCAR-4 ovarian = system: OVCAR-4 ovarian
LOX IMVI melanoma = system: LOX IMVI melanoma
SK-MEL-5 melanoma = system: SK-MEL-5 melanoma
NCI-H460 lung = system: NCI-H460 lung
UO-31 renal = system: UO-31 renal
COLO 205 colon = system: COLO 205 colon
NCI-H23 lung = system: NCI-H23 lung
K-562 leukemia = system: K-562 leukemia
DMS 114 small cell lung = system: DMS 114 small cell lung
SK-MEL-28 melanoma = system: SK-MEL-28 melanoma
CAKI-1 renal = system: CAKI-1 renal
UACC-257 melanoma = system: UACC-257 melanoma
SN12C renal = system: SN12C renal
HOP-92 NSCLC = system: HOP-92 NSCLC
OVCAR-8 ovarian = system: OVCAR-8 ovarian
EKVX NSCLC = system: EKVX NSCLC
HOP-62 NSCLC = system: HOP-62 NSCLC
TK-10 renal = system: TK-10 renal
KM12 colon = system: KM12 colon
RPMI-8226 leukemia = system: RPMI-8226 leukemia
NCI-H522 lung = system: NCI-H522 lung
U251 CNS = system: U251 CNS
HOP-18 NSCLC = system: HOP-18 NSCLC
SNB-19 CNS = system: SNB-19 CNS
M14 melanoma = system: M14 melanoma
CCRF-CEM leukemia = system: CCRF-CEM leukemia
SF-268 CNS = system: SF-268 CNS
MOLT-4 leukemia = system: MOLT-4 leukemia
SW-620 colon = system: SW-620 colon
IGROV1 ovarian = system: IGROV1 ovarian
ACHN renal = system: ACHN renal
UACC-62 melanoma = system: UACC-62 melanoma
HT29 colon = system: HT29 colon
OVCAR-5 ovarian = system: OVCAR-5 ovarian
SK-OV-3 ovarian = system: SK-OV-3 ovarian
SNB-75 CNS = system: SNB-75 CNS
MALME-3M melanoma = system: MALME-3M melanoma
NCI-H226 lung = system: NCI-H226 lung
A498 renal = system: A498 renal
SNB-78 CNS = system: SNB-78 CNS
SR leukemia = system: SR leukemia
HCT-116 colon = system: HCT-116 colon
XF 498 CNS = system: XF 498 CNS

SMILES: O=c1c(Sc2c(O)c3ccccc3c3ccccc3c2=O)c(O)c2ccccc2c2ccccc12
- TGI (RXF 393 renal): > 100 µM
- TGI (A549 NSCLC): > 100 µM
- TGI (KM20L2 colon): > 100 µM
- TGI (786-0 renal): > 100 µM
- TGI (LXFL 529 NSCLC): > 100 µM
- TGI (SF-539 CNS): > 100 µM
- TGI (HCC-2998 colon): > 100 µM
- TGI (RXF-631 renal): > 100 µM
- TGI (SF-295 CNS): > 100 µM
- TGI (SK-MEL-2 melanoma): 68.5 µM
- TGI (HCT-15 colon): > 100 µM
- TGI (OVCAR-3 ovarian): > 100 µM
- TGI (HL-60(TB) leukemia): 41.8 µM
- TGI (DLD-1 colon): > 100 µM
- TGI (M19-MEL melanoma): > 100 µM
- TGI (DMS 273 small cell lung): > 100 µM
- TGI (OVCAR-4 ovarian): > 100 µM
- TGI (LOX IMVI melanoma): 66.5 µM
- TGI (SK-MEL-5 melanoma): > 100 µM
- TGI (NCI-H460 lung): > 100 µM
- TGI (UO-31 renal): > 100 µM
- TGI (COLO 205 colon): > 100 µM
- TGI (NCI-H23 lung): 94.7 µM
- TGI (K-562 leukemia): > 100 µM
- TGI (DMS 114 small cell lung): 92.3 µM
- TGI (SK-MEL-28 melanoma): > 100 µM
- TGI (CAKI-1 renal): > 100 µM
- TGI (UACC-257 melanoma): > 100 µM
- TGI (SN12C renal): > 100 µM
- TGI (HOP-92 NSCLC): > 100 µM
- TGI (OVCAR-8 ovarian): > 100 µM
- TGI (EKVX NSCLC): > 100 µM
- TGI (HOP-62 NSCLC): 86.4 µM
- TGI (TK-10 renal): > 100 µM
- TGI (KM12 colon): > 100 µM
- TGI (RPMI-8226 leukemia): > 100 µM
- TGI (NCI-H522 lung): 47.8 µM
- TGI (U251 CNS): 84 µM
- TGI (HOP-18 NSCLC): > 100 µM
- TGI (SNB-19 CNS): > 100 µM
- TGI (M14 melanoma): > 100 µM
- TGI (CCRF-CEM leukemia): 56.6 µM
- TGI (SF-268 CNS): 99 µM
- TGI (MOLT-4 leukemia): 73.8 µM
- TGI (SW-620 colon): > 100 µM
- TGI (IGROV1 ovarian): > 100 µM
- TGI (ACHN renal): 78.5 µM
- TGI (UACC-62 melanoma): > 100 µM
- TGI (HT29 colon): > 100 µM
- TGI (OVCAR-5 ovarian): > 100 µM
- TGI (SK-OV-3 ovarian): > 100 µM
- TGI (SNB-75 CNS): > 100 µM
- TGI (MALME-3M melanoma): > 100 µM

SMILES: COc1cc(Cl)cc(N(O)C(C)=O)c1OCc1ccccc1
- TGI (RXF 393 renal): > 100 µM
- TGI (NCI-H226 lung): > 100 µM
- TGI (A549 NSCLC): > 100 µM
- TGI (KM20L2 colon): > 100 µM
- TGI (786-0 renal): > 100 µM
- TGI (LXFL 529 NSCLC): > 100 µM
- TGI (SF-539 CNS): > 100 µM
- TGI (HCC-2998 colon): > 100 µM
- TGI (A498 renal): > 100 µM
- TGI (SF-295 CNS): > 100 µM
- TGI (HCT-15 colon): > 100 µM
- TGI (OVCAR-3 ovarian): > 100 µM
- TGI (HL-60(TB) leukemia): > 100 µM
- TGI (DLD-1 colon): > 100 µM
- TGI (M19-MEL melanoma): > 100 µM
- TGI (DMS 273 small cell lung): > 100 µM
- TGI (OVCAR-4 ovarian): > 100 µM
- TGI (LOX IMVI melanoma): > 100 µM
- TGI (SK-MEL-5 melanoma): > 100 µM
- TGI (NCI-H460 lung): > 100 µM
- TGI (SNB-78 CNS): > 100 µM
- TGI (UO-31 renal): > 100 µM
- TGI (COLO 205 colon): > 100 µM
- TGI (NCI-H23 lung): > 100 µM
- TGI (K-562 leukemia): > 100 µM
- TGI (DMS 114 small cell lung): 71.5 µM
- TGI (SK-MEL-28 melanoma): > 100 µM
- TGI (SR leukemia): > 100 µM
- TGI (CAKI-1 renal): > 100 µM
- TGI (HCT-116 colon): > 100 µM
- TGI (UACC-257 melanoma): > 100 µM
- TGI (SN12C renal): > 100 µM
- TGI (HOP-92 NSCLC): > 100 µM
- TGI (OVCAR-8 ovarian): > 100 µM
- TGI (EKVX NSCLC): > 100 µM
- TGI (HOP-62 NSCLC): > 100 µM
- TGI (TK-10 renal): > 100 µM
- TGI (KM12 colon): > 100 µM
- TGI (RPMI-8226 leukemia): > 100 µM
- TGI (NCI-H522 lung): > 100 µM
- TGI (U251 CNS): > 100 µM
- TGI (HOP-18 NSCLC): > 100 µM
- TGI (SNB-19 CNS): > 100 µM
- TGI (XF 498 CNS): > 100 µM
- TGI (M14 melanoma): > 100 µM
- TGI (CCRF-CEM leukemia): > 100 µM
- TGI (SF-268 CNS): > 100 µM
- TGI (MOLT-4 leukemia): > 100 µM
- TGI (SW-620 colon): > 100 µM
- TGI (IGROV1 ovarian): > 100 µM
- TGI (ACHN renal): > 100 µM
- TGI (UACC-62 melanoma): > 100 µM
- TGI (HT29 colon): > 100 µM
- TGI (OVCAR-5 ovarian): > 100 µM
- TGI (SK-OV-3 ovarian): > 100 µM
- TGI (SNB-75 CNS): 76.4 µM
- TGI (MALME-3M melanoma): > 100 µM
